Square brackets hold non-standard residues; d marks the D form. Ends that are not written are not given here. Peptide text beside a SMILES is read from it. Bip = N[C@@H](Cc1ccc(-c2ccccc2)cc1)C(=O)O; 2Nal = N[C@@H](Cc1ccc2ccccc2c1)C(=O)O; Tic = O=C(O)[C@@H]1Cc2ccccc2CN1; 2Thi = N[C@@H](Cc1cccs1)C(=O)O Bounds are passed on as bounds.

T1: intestinal PYY-preferring receptors (Rattus norvegicus, UniProt Q9ERC0)
T1 sequence (Q9ERC0 1-381): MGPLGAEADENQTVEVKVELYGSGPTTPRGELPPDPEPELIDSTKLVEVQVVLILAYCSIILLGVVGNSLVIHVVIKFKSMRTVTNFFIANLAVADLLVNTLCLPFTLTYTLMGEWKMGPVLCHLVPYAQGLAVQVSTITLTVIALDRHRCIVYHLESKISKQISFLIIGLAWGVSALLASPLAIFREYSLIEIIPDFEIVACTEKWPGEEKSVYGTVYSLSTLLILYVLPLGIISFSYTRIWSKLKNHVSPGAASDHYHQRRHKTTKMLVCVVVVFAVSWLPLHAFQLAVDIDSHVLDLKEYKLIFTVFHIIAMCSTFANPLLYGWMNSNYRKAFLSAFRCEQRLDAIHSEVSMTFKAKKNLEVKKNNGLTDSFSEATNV

B1: N-α-Ac-[Bth^27 ]PYY(22-36) (peptide)
peptide: ASLRHXLNLVTRQRY
HELM: PEPTIDE1{[ac].A.S.L.R.H.[O=C([C@H](Cc1csc2ccccc12)N[*:1])[*:2]].L.N.L.V.T.R.Q.R.Y.[am]}$$$$V2.0
SMILES: CC(=O)N[C@@H](C)C(=O)N[C@@H](CO)C(=O)N[C@@H](CC(C)C)C(=O)N[C@@H](CCCNC(=N)N)C(=O)N[C@@H](Cc1c[nH]cn1)C(=O)N[C@@H](Cc1csc2ccccc12)C(=O)N[C@@H](CC(C)C)C(=O)N[C@@H](CC(N)=O)C(=O)N[C@@H](CC(C)C)C(=O)N[C@H](C(=O)N[C@H](C(=O)N[C@@H](CCCNC(=N)N)C(=O)N[C@@H](CCC(N)=O)C(=O)N[C@@H](CCCNC(=N)N)C(=O)N[C@@H](Cc1ccc(O)cc1)C(N)=O)[C@@H](C)O)C(C)C

For the first assay, the target named is PYY receptor of rat jejunal epithelial plasma membranes (rat). Put plainly: competition with 125I-PYY on rat jejunal membranes.
Settings: not given
The IC50 is the concentration that inhibits the measured activity by half. Low readings indicate greater potency, high ones weaker potency. N-α-Ac-[Phe^27 ]PYY(25-36) (peptide): the IC50 came to 0.15 nM.
On the same count and under the same terms, the figure for Ac-ASLRHWLNLVTRQRY-NH2 [N-α-Ac-[Trp^27 ]PYY(22-36)] is 0.1 nM; for Ac-ASLRH[Tic]LNLVTRQRY-NH2 [N-α-Ac-[Tic^27 ]PYY(22-36)] it is 4.5 nM.
Regarding Ac-ASLRH[2Thi]LNLVTRQRY-NH2 [N-α-Ac-[Thi^27 ]PYY(22-36)], the IC50 came to 0.095 nM.
In turn, Ac-ASLRH[Bip]LNLVTRQRY-NH2 [N-α-Ac-[Bip^27 ]PYY(22-36)] came in with an IC50 of 4.46 nM.
In the case of Ac-ASLRH[2Nal]LNLVTRQRY-NH2 [N-α-Ac-[Nal^27 ]PYY(22-36)], the IC50 turned out to be 0.39 nM.
In turn, B1 registered an IC50 of 0.22 nM.

For another assay, the target named is T1, intestinal PYY-preferring receptors.
Assay: not given
Settings: not given
The molecule `CC(=O)N[C@@H](C)C(=O)N[C@@H](CO)C(=O)N[C@@H](CC(C)C)C(=O)N[C@@H](CCCNC(=N)N)C(=O)N[C@@H](Cc1c[nH]cn1)C(=O)N[C@@H](Cc1ccc2ccccc2c1)C(=O)N[C@@H](CC(C)C)C(=O)N[C@@H](CC(N)=O)C(=O)N[C@@H](CC(C)C)C(=O)N[C@H](C(=O)N[C@H](C(=O)N[C@@H](CCCNC(=N)N)C(=O)N[C@@H](CCC(N)=O)C(=O)N[C@@H](CCCNC(=N)N)C(=O)N[C@@H](Cc1ccc(O)cc1)C(N)=O)[C@@H](C)O)C(C)C` [Peptide 911, N-α-Ac-A S L R H [NaL] L N L V T R Q R Y--NH2] (HELM PEPTIDE1{[ac].A.S.L.R.H.[O=C([C@H](Cc1ccc2ccccc2c1)N[*:1])[*:2]].L.N.L.V.T.R.Q.R.Y.[am]}$$$$V2.0) showed an IC50 of 0.39 nM.

Still in this assay, the particulars now being: BINDING IC50 (nM), Table 1; 125I-PYY, rat jejunal membranes; mean of three separate experiments.
With `CC(=O)N[C@@H](C)C(=O)N[C@@H](CO)C(=O)N[C@@H](CC(C)C)C(=O)N[C@@H](CCCNC(=N)N)C(=O)N[C@@H](Cc1cnc[nH]1)C(=O)N[C@@H](Cc1ccc(O)cc1)C(=O)N[C@@H](CC(C)C)C(=O)N[C@@H](CC(N)=O)C(=O)N[C@@H](CC(C)C)C(=O)N[C@H](C(=O)N[C@H](C(=O)N[C@@H](CCCNC(=N)N)C(=O)N[C@@H](CCC(N)=O)C(=O)N[C@@H](CCCNC(=N)N)C(=O)N[C@@H](Cc1ccc(O)cc1)C(N)=O)[C@@H](C)O)C(C)C` [N-α-Ac-PYY(22-36), N-α-Ac-A S L R H Y L N L V T R Q R Y--NH2], the IC50 worked out at 1.12 nM.
The same measure, in the same setting: as for “AALRHYLNLVARQRY-NH2 [[Ala^23,32]PYY(22-36), A [Ala] L R H Y L N L V [Ala] R Q R Y-NN2]”, the figure is more than 10000 nM; as for “ASLRHYENLVTRQRY-NH2 [[Glu^28]PYY(22-36), A S L R H Y [Glu] N L V T R Q R Y--NH2]”, 199 nM; as for “ASLRHYLNLVARQRY-NH2 [[Ala^32]PYY(22-36), A S L R H Y L N L V [Ala] R Q R Y--NH2]”, 71 nM.
Same read-out and setting: as for “Ac-ASLRHFLNLVTRQRY-NH2 [N-α-Ac-[Phe^27]PYY(22-36)]”, the figure is 0.8 nM.

The assay is the same for the next values; noted with them: IC50 (nM), Table 2; receptor binding data.
`CC(=O)N[C@@H](C)C(=O)N[C@@H](CO)C(=O)N[C@@H](CC(C)C)C(=O)N[C@@H](CCCNC(=N)N)C(=O)N[C@@H](Cc1cnc[nH]1)C(=O)N[C@@H](Cc1ccc(O)cc1)C(=O)N[C@@H](CC(C)C)C(=O)N[C@@H](CC(N)=O)C(=O)N[C@@H](CC(C)C)C(=O)N[C@H](C(=O)N[C@H](C(=O)N[C@@H](CCCNC(=N)N)C(=O)N[C@@H](CCC(N)=O)C(=O)N[C@@H](CCCNC(=N)N)C(=O)N[C@@H](Cc1ccc(O)cc1)C(N)=O)[C@@H](C)O)C(C)C` [N-α-Ac-PYY(22-36), N-α-Ac-A S L R H Y L N L V T R Q R Y--NH2] showed an IC50 of 0.08 nM.
Same read-out and setting: the figure for `CC(=O)N[C@@H](C)C(=O)N[C@@H](CO)C(=O)N[C@@H](CC(C)C)C(=O)N[C@@H](CCCNC(=N)N)C(=O)N[C@@H](Cc1c[nH]cn1)C(=O)N[C@@H](Cc1csc2ccccc12)C(=O)N[C@@H](CC(C)C)C(=O)N[C@@H](CC(N)=O)C(=O)N[C@@H](CC(C)C)C(=O)N[C@H](C(=O)N[C@H](C(=O)N[C@@H](CCCNC(=N)N)C(=O)N[C@@H](CCC(N)=O)C(=O)N[C@@H](CCCNC(=N)N)C(=O)N[C@@H](Cc1ccc(O)cc1)C(N)=O)[C@@H](C)O)C(C)C` [Peptide 905, N-α-Ac-A S L R H [Bth] L N L V T R Q R Y--NH2] (HELM PEPTIDE1{[ac].A.S.L.R.H.[O=C([C@H](Cc1csc2ccccc12)N[*:1])[*:2]].L.N.L.V.T.R.Q.R.Y.[am]}$$$$V2.0) is 0.22 nM.
In the case of `CC(=O)N[C@@H](C)C(=O)N[C@@H](CO)C(=O)N[C@@H](CC(C)C)C(=O)N[C@@H](CCCN=C(N)N)C(=O)N[C@@H](Cc1c[nH]cn1)C(=O)N[C@@H](Cc1ccc(-c2ccccc2)cc1)C(=O)N[C@@H](CC(C)C)C(=O)N[C@@H](CC(N)=O)C(=O)N[C@@H](CC(C)C)C(=O)N[C@H](C(=O)N[C@H](C(=O)N[C@@H](CCCN=C(N)N)C(=O)N[C@@H](CCC(N)=O)C(=O)N[C@@H](CCCN=C(N)N)C(=O)N[C@@H](Cc1ccc(O)cc1)C(N)=O)[C@@H](C)O)C(C)C` [Peptide 906, N-α-Ac-A S L R H [Bip] L N L V T R Q R Y--NH2] (HELM PEPTIDE1{[ac].A.S.L.R.H.[O=C([C@H](Cc1ccc(-c2ccccc2)cc1)N[*:1])[*:2]].L.N.L.V.T.R.Q.R.Y.[am]}$$$$V2.0), the IC50 is 4.46 nM.
Still for that read-out and setting: as for `CC(=O)N[C@@H](C)C(=O)N[C@@H](CO)C(=O)N[C@@H](CC(C)C)C(=O)N[C@@H](CCCNC(=N)N)C(=O)N[C@@H](Cc1c[nH]cn1)C(=O)N[C@@H](Cc1cccs1)C(=O)N[C@@H](CC(C)C)C(=O)N[C@@H](CC(N)=O)C(=O)N[C@@H](CC(C)C)C(=O)N[C@H](C(=O)N[C@H](C(=O)N[C@@H](CCCNC(=N)N)C(=O)N[C@@H](CCC(N)=O)C(=O)N[C@@H](CCCNC(=N)N)C(=O)N[C@@H](Cc1ccc(O)cc1)C(N)=O)[C@@H](C)O)C(C)C` [Peptide 916] (HELM PEPTIDE1{[ac].A.S.L.R.H.[O=C([C@H](Cc1cccs1)N[*:1])[*:2]].L.N.L.V.T.R.Q.R.Y.[am]}$$$$V2.0), the figure is 0.095 nM.
On the same count and under the same terms, the figure for “Ac-ASLRHWLNLVTRQRY-NH2 [Peptide 915, N-α-Ac-A S L R H [Trp] L N L V T R Q R Y--NH2]” is 0.1 nM.

Staying with this assay, now noted: IC50 (nM), Table 3; binding activity.
As to `CC(=O)N[C@@H](C)C(=O)N[C@@H](CO)C(=O)N[C@@H](CC(C)C)C(=O)N[C@@H](CCCNC(=N)N)C(=O)N[C@@H](Cc1c[nH]cn1)C(=O)N[C@@H](Cc1ccc(Cl)cc1)C(=O)N[C@@H](CC(C)C)C(=O)N[C@@H](CC(N)=O)C(=O)N[C@@H](CC(C)C)C(=O)N[C@H](C(=O)N[C@H](C(=O)N[C@@H](CCCNC(=N)N)C(=O)N[C@@H](CCC(N)=O)C(=O)N[C@@H](CCCNC(=N)N)C(=O)N[C@@H](Cc1ccc(O)cc1)C(N)=O)[C@@H](C)O)C(C)C` [Peptide 904, N-α-Ac-A S L R H [Pcp] L N L V T R Q R Y--NH2] (HELM PEPTIDE1{[ac].A.S.L.R.H.[O=C([C@H](Cc1ccc(Cl)cc1)N[*:1])[*:2]].L.N.L.V.T.R.Q.R.Y.[am]}$$$$V2.0), the IC50 was 1.58 nM.
Same read-out and setting: as for `CC(=O)N[C@@H](C)C(=O)N[C@@H](CO)C(=O)N[C@@H](CC(C)C)C(=O)N[C@@H](CCCNC(=N)N)C(=O)N[C@@H](Cc1cnc[nH]1)C(=O)N[C@@H](Cc1ccccc1)C(=O)N[C@@H](CC(C)C)C(=O)N[C@@H](CC(N)=O)C(=O)N[C@@H](CC(C)C)C(=O)N[C@H](C(=O)N[C@H](C(=O)N[C@@H](CCCNC(=N)N)C(=O)N[C@@H](CCC(N)=O)C(=O)N[C@@H](CCCNC(=N)N)C(=O)N[C@@H](Cc1cccs1)C(N)=O)[C@@H](C)O)C(C)C` [Peptide 917, M-α-Ac-A S L R H (Phel L N L V T R Q R [Thi]-NH2] (HELM PEPTIDE1{[ac].A.S.L.R.H.F.L.N.L.V.T.R.Q.R.[O=C([C@H](Cc1cccs1)N[*:1])[*:2]].[am]}$$$$V2.0), the figure is 4.46 nM; as for “Ac-FSLRHFLNLVTRQRY-NH2 [Peptide 908, N-α-Ac-[Phe]S L R N [Phe] L N L V T R Q R Y--NH2]”, 11.2 nM.
“Ac-YSLRHFLNLVTRQRY-NH2 [Peptide 910, N-α-Ac-[Tyr] S L R H [Phe] L N L V T R Q R Y--NH2]” yielded an IC50 of 0.1 nM.

The target of a further assay is PYY receptor of rat jejunal epithelial plasma membranes (rat). Put plainly: competition with 0.05 nM 125I-PYY on rat jejunal epithelial plasma membranes.
Settings: not given
For NPY (neuropeptide Y) (ligand), the IC50 was 2 nM.
PYY(22-36) (peptide) yielded an IC50 of 4 nM.
Turning to [im-DNP-His^26 ]PYY (peptide), the IC50 was found to be 4 nM.
In turn, ASLRHYENLVTRQRY-NH2 [[Glu^28 ]PYY(22-36)] yielded an IC50 of 199 nM.
The same measure, in the same setting: as for ASLRHYLNLVARQRY-NH2 [[Ala^32 ]PYY(22-36)], the figure is 71 nM; as for AALRHYLNLVARQRY-NH2 [[Ala^23,32 ]PYY(22-36)], more than 10000 nM.

Values taken from patent US5604203A, “Analogs of peptide YY and uses thereof” (University of Cincinnati, priority 1994, dated 1997).
